Assay results as given in patent US20030087906A1, “NITROGEN SUBSTITUTED BIARYL PURINE DERIVATIVES AS POTENT ANTIPROLIFERATIVE AGENTS” (priority 2001, published 2003).

How the values were obtained:
[1] = system: SNB-75; experiment: NCI 60-cell line growth inhibition assay; format: cell-based; conditions: Homo sapiens
[2] = system: 786-0; experiment: NCI 60-cell line growth inhibition assay; format: cell-based; conditions: Homo sapiens
[3] = system: T-47D; experiment: NCI 60-cell line growth inhibition assay; format: cell-based; conditions: Homo sapiens, T47D
[4] = system: OVCAR-4; experiment: NCI 60-cell line growth inhibition assay; format: cell-based; conditions: Homo sapiens
[5] = system: EKVX; experiment: NCI 60-cell line growth inhibition assay; format: cell-based; conditions: Homo sapiens
[6] = system: TK-10; experiment: NCI 60-cell line growth inhibition assay; format: cell-based; conditions: Homo sapiens; TK-10 (Renal)
[7] = system: NCI/ADR-RES; experiment: NCI 60-cell line growth inhibition assay; format: cell-based; conditions: Homo sapiens
[8] = system: NCI-H460; experiment: NCI 60-cell line growth inhibition assay; format: cell-based; conditions: Homo sapiens
[9] = system: SNB-19; experiment: NCI 60-cell line growth inhibition assay; format: cell-based; conditions: Homo sapiens
[10] = system: NCI-H522; experiment: NCI 60-cell line growth inhibition assay; format: cell-based; conditions: Homo sapiens; NCI-H522 (Non-Small Cell Lung)
[11] = system: MOLT-4; experiment: NCI 60-cell line growth inhibition assay; format: cell-based; conditions: Homo sapiens
[12] = system: HCC-2998; experiment: NCI 60-cell line growth inhibition assay; format: cell-based; conditions: Homo sapiens
[13] = system: SF-295; experiment: NCI 60-cell line growth inhibition assay; format: cell-based; conditions: Homo sapiens
[14] = system: COLO 205; experiment: NCI 60-cell line growth inhibition assay; format: cell-based; conditions: Homo sapiens
[15] = system: SK-MEL-2; experiment: NCI 60-cell line growth inhibition assay; format: cell-based; conditions: Homo sapiens; SK-MEL-2 (Melanoma)
[16] = system: PC-3; experiment: NCI 60-cell line growth inhibition assay; format: cell-based; conditions: Homo sapiens
[17] = system: DU-145; experiment: NCI 60-cell line growth inhibition assay; format: cell-based; conditions: Homo sapiens
[18] = system: RPMI-8226; experiment: NCI 60-cell line growth inhibition assay; format: cell-based; conditions: Homo sapiens
[19] = system: MDA-N; experiment: NCI 60-cell line growth inhibition assay; format: cell-based; conditions: Homo sapiens
[20] = system: MCF7; experiment: NCI 60-cell line growth inhibition assay; format: cell-based; conditions: Homo sapiens
[21] = system: NCI-H226; experiment: NCI 60-cell line growth inhibition assay; format: cell-based; conditions: Homo sapiens
[22] = system: HOP-62; experiment: NCI 60-cell line growth inhibition assay; format: cell-based; conditions: Homo sapiens
[23] = system: UO-31; experiment: NCI 60-cell line growth inhibition assay; format: cell-based; conditions: Homo sapiens
[24] = system: OVCAR-3; experiment: NCI 60-cell line growth inhibition assay; format: cell-based; conditions: Homo sapiens
[25] = system: A498; experiment: NCI 60-cell line growth inhibition assay; format: cell-based; conditions: Homo sapiens
[26] = system: HT29; experiment: NCI 60-cell line growth inhibition assay; format: cell-based; conditions: Homo sapiens, HT-29
[27] = system: SW-620; experiment: NCI 60-cell line growth inhibition assay; format: cell-based; conditions: Homo sapiens
[28] = system: UACC-62; experiment: NCI 60-cell line growth inhibition assay; format: cell-based; conditions: Homo sapiens
[29] = system: RXF 393; experiment: NCI 60-cell line growth inhibition assay; format: cell-based; conditions: Homo sapiens
[30] = system: SK-MEL-28; experiment: NCI 60-cell line growth inhibition assay; format: cell-based; conditions: Homo sapiens
[31] = system: NCI-H322M; experiment: NCI 60-cell line growth inhibition assay; format: cell-based; conditions: Homo sapiens
[32] = system: Tumor Cells in Hollow Fibers; experiment: NCI Hollow Fiber Assay (in vivo evaluation); conditions: for IP Score: IP fibers; for SC score: SC fibers
[33] = system: HL-60(TB); experiment: NCI 60-cell line growth inhibition assay; format: cell-based; conditions: Homo sapiens; HL-60(TB) (Leukemia)
[34] = system: NCI-H23; experiment: NCI 60-cell line growth inhibition assay; format: cell-based; conditions: Homo sapiens
[35] = system: MDA-MB-231/ATCC; experiment: NCI 60-cell line growth inhibition assay; format: cell-based; conditions: Homo sapiens; MDA-MB-231/ATCC (Breast)
[36] = system: SF-539; experiment: NCI 60-cell line growth inhibition assay; format: cell-based; conditions: Homo sapiens; CNS, SF-539
[37] = system: HOP-92; experiment: NCI 60-cell line growth inhibition assay; format: cell-based; conditions: Homo sapiens; Non-Small Cell Lung, HOP-92
[38] = system: HS 578T; experiment: NCI 60-cell line growth inhibition assay; format: cell-based; conditions: Homo sapiens; Breast, HS 578T
[39] = system: LOX IMVI; experiment: NCI 60-cell line growth inhibition assay; format: cell-based; conditions: Homo sapiens; Melanoma, LOX IMVI
[40] = system: CCRF-CEM; experiment: NCI 60-cell line growth inhibition assay; format: cell-based; conditions: Homo sapiens; Leukemia, CCRF-CEM

## CC(C)n1cnc2c(NCc3ccc(-c4ccccn4)cc3)nc(N[C@H]3CC[C@H](N)CC3)nc21 [Compound 78]
[1]; SNB-75 (CNS)
  GI50: < 0.01 µM
[2]; 786-0 (Renal)
  GI50: 0.04 µM
[3]; T-47D (Breast)
  GI50: 0.03 µM
[4]; OVCAR-4 (Ovarian)
  GI50: 0.02 µM
[5]; EKVX (Non-Small Cell Lung)
  GI50: 0.05 µM
[6]
  GI50: 0.07 µM
[7]; NCI/ADR-RES (Breast)
  GI50: 14.5 µM
[8]; NCI-H460 (Non-Small Cell Lung)
  GI50: 0.05 µM
[9]; SNB-19 (CNS)
  GI50: < 0.01 µM
[10]
  GI50: < 0.01 µM
[11]; MOLT-4 (Leukemia)
  GI50: < 0.01 µM
[12]; HCC-2998 (Colon)
  GI50: < 0.01 µM
[13]; SF-295 (CNS)
  GI50: 0.21 µM
[14]; COLO 205 (Colon)
  GI50: < 0.01 µM
[15]
  GI50: 0.02 µM
[16]; PC-3 (Prostate)
  GI50: < 0.01 µM
[17]; DU-145 (Prostate)
  GI50: 0.06 µM
[18]; RPMI-8226 (Leukemia)
  GI50: < 0.01 µM
[19]; MDA-N (Breast)
  GI50: < 0.01 µM
[20]; MCF7 (Breast)
  GI50: < 0.01 µM
[21]; NCI-H226 (Non-Small Cell Lung)
  GI50: 0.02 µM
[22]; HOP-62 (Non-Small Cell Lung)
  GI50: 0.02 µM
[23]; UO-31 (Renal)
  GI50: 0.17 µM
[24]; OVCAR-3 (Ovarian)
  GI50: 0.03 µM
[25]; A498 (Renal)
  GI50: 0.03 µM
[26]; HT29 (Colon)
  GI50: < 0.01 µM
[27]; SW-620 (Colon)
  GI50: < 0.01 µM
[28]; UACC-62 (Melanoma)
  GI50: 0.03 µM
[29]; RXF 393 (Renal)
  GI50: < 0.01 µM
[30]; SK-MEL-28 (Melanoma)
  GI50: 0.01 µM
[31]; NCI-H322M (Non-Small Cell Lung)
  GI50: < 0.01 µM
[32]
  Cell Types Killed: OVCAR 3, SF29
  IP Score: 34
  SC score: 0
[33]
  GI50: < 0.01 µM
[34]; NCI-H23 (Non-Small Cell Lung)
  GI50: 0.01 µM
[35]
  GI50: < 0.01 µM

## CC[C@H](CO)Nc1nc(NCc2ccc(-c3ccccn3)cc2)c2ncn(C(C)C)c2n1 [Compound 17]
[1]; CNS, SNB-75
  GI50: 0.02 µM
[2]; Renal, 786-0
  GI50: 0.25 µM
[3]; Breast, T-47D
  GI50: 0.13 µM
[4]; Ovarian, OVCAR-4
  GI50: 0.32 µM
[5]; Non-Small Cell Lung, EKVX
  GI50: 2.51 µM
[7]; Breast, NCI/ADR-RES
  GI50: 0.28 µM
[36]
  GI50: 0.4 µM
[8]; Non-Small Cell Lung, NCI-H460
  GI50: 0.41 µM
[9]; CNS, SNB-19
  GI50: 0.14 µM
[11]; Leukemia, MOLT-4
  GI50: 0.25 µM
[12]; Colon, HCC-2998
  GI50: 0.03 µM
[13]; CNS, SF-295
  GI50: 0.19 µM
[14]; Colon, COLO 205
  GI50: 0.05 µM
[16]; Prostate, PC-3
  GI50: 0.2 µM
[17]; Prostate, DU-145
  GI50: 0.63 µM
[18]; Leukemia, RPMI-8226
  GI50: 0.03 µM
[19]; Breast, MDA-N
  GI50: 0.11 µM
[20]; Breast, MCF7
  GI50: 0.16 µM
[21]; Non-Small Cell Lung, NCI-H226
  GI50: 0.11 µM
[37]
  GI50: 1.58 µM
[22]; Non-Small Cell Lung, HOP-62
  GI50: 0.2 µM
[23]; Renal, UO-31
  GI50: 0.1 µM
[24]; Ovarian, OVCAR-3
  GI50: 0.65 µM
[25]; Renal, A498
  GI50: 1.58 µM
[26]; Colon, HT29
  GI50: 0.1 µM
[27]; Colon, SW-620
  GI50: 0.01 µM
[28]; Melanoma, UACC-62
  GI50: 0.27 µM
[38]
  GI50: 6.31 µM
[29]; Renal, RXF 393
  GI50: 0.02 µM
[39]
  GI50: 0.32 µM
[30]; Melanoma, SK-MEL-28
  GI50: 0.12 µM
[31]; Non-Small Cell Lung, NCI-H322M
  GI50: > 1000 µM
[32]
  IP Score: 8
  SC score: 0
[40]
  GI50: 0.16 µM
[34]; Non-Small Cell Lung, NCI-H23
  GI50: 0.16 µM
